≈ marks a conversion by molar mass, not a printed value.
Legend:
Assay type in all cases: functional
Micrococcus luteus = assay: Antimicrobial activity against Micrococcus luteus MTCC 2470 incubated for 24 hrs by well diffusion assay; settings: MTCC 2470, 24 h
Staphylococcus aureus [1] = assay: Antimicrobial activity against Staphylococcus aureus MTCC 96 incubated for 24 hrs by well diffusion assay; settings: MTCC 96, 24 h
Staphylococcus aureus [2] = assay: Antimicrobial activity against Staphylococcus aureus MLS-16 […] incubated for 24 hrs by well diffusion assay
Bacillus subtilis = assay: Antimicrobial activity against Bacillus subtilis MTCC 121 incubated for 24 hrs by well diffusion assay; settings: MTCC 121, 24 h
Escherichia coli = assay: Antimicrobial activity against Escherichia coli MTCC 739 incubated for 24 hrs by well diffusion assay; settings: MTCC 739, 24 h
Pseudomonas aeruginosa = assay: Antimicrobial activity against Pseudomonas aeruginosa MTCC 2453 incubated for 24 hrs by well diffusion assay; settings: MTCC 2453, 24 h
Raoultella planticola = assay: Antimicrobial activity against Klebsiella planticola MTCC 530 incubated for 24 hrs by well diffusion assay; settings: MTCC 530, 24 h
Candida albicans = assay: Antimicrobial activity against Candida albicans MTCC 3017 incubated for 24 hrs by well diffusion assay; settings: MTCC 3017, 24 h
[3] = Antioxidant activity assessed as DPPH radical scavenging activity at 0.5 mM incubated for 40 mins in dark condition
[4] = Antioxidant activity assessed as DPPH radical scavenging activity at 1 mM incubated for 40 mins in dark condition
[5] = Antioxidant activity assessed as DPPH radical scavenging activity at 2 mM incubated for 40 mins in dark condition

Row | Structure (SMILES) | MIC (Micrococcus luteus) [µg/mL] | MIC (Staphylococcus aureus [1]) [µg/mL] | MIC (Staphylococcus aureus [2]) [µg/mL] | MIC (Bacillus subtilis) [µg/mL] | MIC (Escherichia coli) [µg/mL] | MIC (Pseudomonas aeruginosa) [µg/mL] | MIC (Candida albicans) [µg/mL] | MIC (Raoultella planticola) [µg/mL] | Activity [3] [%] | Activity [4] [%] | Activity [5] [%]
1 | CC(C)OC(=O)N1c2c(c(=O)oc3ccccc23)N[C@H](c2ccc([N+](=O)[O-])cc2)N1C(=O)OC(C)C | > 100 | > 100 | > 100 | > 100 | > 100 | > 100 | > 100 | > 100 | 3.27 | 7.06 | 14.6
2 | CC(C)OC(=O)N1c2c(c(=O)oc3ccccc23)N[C@H](c2ccc(C(F)(F)F)cc2)N1C(=O)OC(C)C | > 100 | > 100 | > 100 | > 100 | > 100 | > 100 | > 100 | > 100 | – | 1.06 | 6.8
3 | CCOC(=O)C1=C(C(=O)OCC)[C@@H](c2cc(O)ccc2O)Nc2c1c1ccccc1oc2=O | > 100 | > 100 | > 100 | > 100 | > 100 | > 100 | > 100 | > 100 | 2.43 | 3.88 | 7.42
4 | Nc1cc2ccccc2oc1=O | > 100 | > 100 | > 100 | > 100 | > 100 | > 100 | > 100 | > 100 | – | 2.77 | 6.08
5 | O=C(O)c1cn(C2CC2)c2cc(N3CCNCC3)c(F)cc2c1=O [CIPROFLOXACIN] | 0.58 (≈ 1.75 µM) | 0.58 (≈ 1.75 µM) | 0.58 (≈ 1.75 µM) | 0.58 (≈ 1.75 µM) | 0.58 (≈ 1.75 µM) | 0.58 (≈ 1.75 µM) | – | 0.58 (≈ 1.75 µM) | – | – | –
6 | Clc1ccc(COC(Cn2ccnc2)c2ccc(Cl)cc2Cl)c(Cl)c1 (stereo not given) [MICONAZOLE] | – | – | – | – | – | – | 9.37 (≈ 22.5 µM) | – | – | – | –
7 | Cc1cc(C(C)(C)C)c(O)c(C(C)(C)C)c1 | – | – | – | – | – | – | – | – | 39.8 | 68.5 | 78.5
8 | Cc1c(C)c2c(c(C)c1O)CC[C@@](C)(CCC[C@H](C)CCC[C@H](C)CCCC(C)C)O2 | – | – | – | – | – | – | – | – | 47.7 | 81.7 | 86.4

Now from value to compound, other results behind:

Row | MIC (Micrococcus luteus) [µg/mL] | MIC (Staphylococcus aureus [1]) [µg/mL] | MIC (Staphylococcus aureus [2]) [µg/mL] | MIC (Bacillus subtilis) [µg/mL] | MIC (Escherichia coli) [µg/mL] | MIC (Pseudomonas aeruginosa) [µg/mL] | MIC (Candida albicans) [µg/mL] | Structure (SMILES) | MIC (Raoultella planticola) [µg/mL] | Activity [3] [%] | Activity [4] [%] | Activity [5] [%]
9 | > 100 | > 100 | > 100 | > 100 | > 100 | > 100 | > 100 | CCOc1ccc([C@H]2Nc3c(c4ccccc4oc3=O)[C@@H]3OCCC[C@H]23)cc1 | > 100 | – | – | –
10 | > 100 | > 100 | > 100 | > 100 | > 100 | > 100 | > 100 | O=c1oc2ccccc2c2c1N[C@H](c1ccc(F)cc1)[C@H]1CCCO[C@@H]21 | > 100 | – | – | –
11 | > 100 | > 100 | > 100 | > 100 | > 100 | > 100 | > 100 | CC(C)OC(=O)N1c2c(c(=O)oc3ccccc23)N[C@H](c2ccc(C#N)cc2)N1C(=O)OC(C)C | > 100 | – | 0.88 | 3.14
12 | > 100 | > 100 | > 100 | > 100 | > 100 | > 100 | > 100 | CC(C)OC(=O)N1c2c(c(=O)oc3ccccc23)N[C@H](c2ccc(O)c(Cl)c2)N1C(=O)OC(C)C | > 100 | 10.8 | 21 | 31.1
13 | > 100 | > 100 | > 100 | > 100 | > 100 | > 100 | > 100 | O=c1oc2ccccc2c2c1N[C@H](c1ccccc1)[C@H]1CCCO[C@@H]21 | > 100 | – | – | –
14 | > 100 | > 100 | > 100 | > 100 | > 100 | > 100 | > 100 | COc1cc(OC)cc([C@@H]2C[C@@H](c3ccc4ccccc4c3)c3c(c(=O)oc4ccccc34)N2)c1 | > 100 | – | – | –
15 | > 100 | > 100 | > 100 | > 100 | > 100 | > 100 | > 100 | O=c1oc2ccccc2c2c1N[C@H](c1ccc([N+](=O)[O-])cc1)[C@H]1CCCO[C@@H]21 | > 100 | – | – | –
16 | > 100 | > 100 | > 100 | > 100 | > 100 | > 100 | > 100 | O=c1oc2ccccc2c2c1N[C@H](c1ccc(Cl)cc1)C[C@H]2c1ccc2ccccc2c1 | > 100 | – | – | –
17 | > 100 | > 100 | > 100 | > 100 | > 100 | > 100 | > 100 | O=c1oc2ccccc2c2c1N[C@H](c1ccc(Cl)cc1)[C@H]1CCCO[C@@H]21 | > 100 | – | – | –
18 | > 100 | > 100 | > 100 | > 100 | > 100 | > 100 | > 100 | CCOC(=O)C1=C(C(=O)OCC)[C@@H](c2cc(OC)ccc2O)Nc2c1c1ccccc1oc2=O | > 100 | 9.58 | 20.1 | 32.1
19 | > 100 | > 100 | > 100 | > 100 | > 100 | > 100 | > 100 | CCOC(=O)C1=C(C(=O)OCC)[C@@H](c2ccc(O)c(Cl)c2)Nc2c1c1ccccc1oc2=O | > 100 | 4.84 | 5.79 | 11

From ChEMBL document CHEMBL3856262, “A diastereoselective synthesis of tetrahydro- and dihydro-pyrido[2,3-c]coumarin derivatives via a one-pot three-component Povarov reaction catalyzed by bismuth(III) chloride” (2016)
